Assay results published in PMC3877896, “New Dimeric Members of the Phomoxanthone Family: Phomolactonexanthones A, B and Deacetylphomoxanthone C Isolated from the Fungus Phomopsis sp” (Marine Drugs, 2013).

Assays:
[1] = test system: four human cancer cell lines (MDA-MB-435, HCT-116, Calu-3, Huh7); test: MTT cytotoxicity assay, tested cancer cell lines taken together; assay type: cell-based; details: for cytotoxic activities against tested cancer cell lines (in words): MDA-MB-435, HCT-116, Calu-3, Huh7
Method: (§1) These phomoxanthone compounds (1–8) were evaluated for their cyctotoxic activity in vitro against four human cancer cell lines including human breast MDA-MB-435, human colon HCT-116, human lung Calu-3 and human liver Huh7, compared with their effects on the immortalized human breast epithelial cell line MCF-10A by MTT assay using epirubicin (an anticancer drug used widely in the clinic) as positive control.
(§2) MDA-MB-435, HCT-116, Calu-3 and Huh7 were cultured in Dulbecco’s modification Eagle’s medium (DMEM, Invitrogen, Carlsbad, CA, USA) supplemented with 10% fetal bovine serum (FBS, Hyclone, Logan, UT, USA), 2 mM L-glutamine, 100 μg/mL streptomycin and 100 U/mL penicillin (Invitrogen, Carlsbad, CA, USA). MCF-10A cells were cultured in keratinocyte serum free medium (KSFM) supplemented with 0.1–0.2 ng/mL human recombinant epidermal growth factor and 20–30 μg/mL bovine pituitary extract (Invitrogen, Carlsbad, CA, USA). The cells were incubated at 37 °C in a humidified atmosphere with 5% CO2.
(§3) Cells were harvested during logarithmic growth phase and seeded in 96-well plates at a density of 1 × 10^4 cells/mL, and cultured at 37 °C in a humidified incubator (5% CO2) for 24 h, followed by exposure to various concentrations of compounds tested for 48 h. Subsequently 20 μL of MTT (Genview, Houston, TX, USA) solution (5 mg/mL) was added to each well and mixed, the cells were then incubated for an additional 4 h. Culture supernatant was removed using the micropipette, 150 μL of DMSO (Sangon Biotech, Shanghai, China) was added to each well to fully dissolve the MTT-formazan crystals. Cell growth inhibition was determined by measuring the absorbance (Abs) at λ = 570 nm using a microplate reader and calculated according to the following equation: Growth inhibition = (1 − OD of treated cells/OD of control cells) × 100%
(§4) The half maximal inhibitory concentrations (IC50) were obtained from linear regression analysis of the concentration-response curves plotted for each tested compound.

[2] = test system: Calu-3 human lung cancer cell line; test: MTT cytotoxicity assay, Calu-3; assay type: cell-based; details: mean ± SD of three independent experiments
Method: as §1, §2, §3, §4

[3] = test system: Huh7 human liver cancer cell line; test: MTT cytotoxicity assay, Huh7; assay type: cell-based; details: Huh-7, 48 h exposure, mean ± SD of three independent experiments
Method: as §1, §2, §3, §4

[4] = MTT cytotoxicity assay, MCF-10A; assay type: cell-based, human; details: human, MCF-10A cells, 48 h exposure, mean ± SD of three independent experiments
Method: as §1, §2, §3, §4

[5] = test system: MCF-10A immortalized human breast epithelial cell line; test: MTT cytotoxicity assay, MCF-10A; assay type: cell-based; details: MCF-10A
Method: as §1, §2, §3, §4

[6] = test system: HCT-116 human colon cancer cell line; test: MTT cytotoxicity assay, HCT-116; assay type: cell-based; details: mean ± SD of three independent experiments
Method: as §1, §2, §3, §4

[7] = test system: MDA-MB-435 human breast cancer cell line; test: MTT cytotoxicity assay, MDA-MB-435; assay type: cell-based; details: mean ± SD of three independent experiments
Method: as §1, §2, §3, §4

HCT-116 (colon tumor) = test system: HCT-116 (colon tumor); set-up: method as in PMID 11520215; details: cited from earlier work
A549 (lung tumor) = test system: A549 (lung tumor); set-up: method as in PMID 11520215; details: cited from earlier work
[8] = Homo sapiens, Calu-3, 48 h, 48 h exposure
[9] = Homo sapiens, HCT-116, 48 h, 48 h exposure
[10] = Homo sapiens, MDA-MB-435, 48 h, 48 h exposure
[11] = Homo sapiens, Calu-3, 48 h exposure
[12] = Homo sapiens, HCT-116, 48 h exposure

Row | Structure (SMILES) | cytotoxic activities against tested cancer cell lines (in words) ([1]; MTT) | IC50 [2, 8] | IC50 [3] | IC50 at 48 h [4] | cytotoxic effect on the immortalized human breast epithelial cell line (in words) [5] | IC50 [6, 9] | IC50 [7, 10] | IC50 [2, 11] | melting point | IC50 [6, 12] | IC50 ([7]; Homo sapiens, MDA-MB-435, 48 h exposure) | IC50 ([1]; Homo sapiens, summary statement of the abstract, cell lines not specified, read-out: IC50 against tested cancer cell lines) | cytotoxic activity against HCT-116 compared with dicerandrol B (in words) (HCT-116 (colon tumor)) | cytotoxic activity against A549 compared with dicerandrol B (in words) (A549 (lung tumor)) | IC50 ([7]; 48 h exposure) | anticancer activities against MDA-MB-435, HCT-116 and Calu-3 (in words) ([1]; MTT, MDA-MB-435, HCT-116, Calu-3) | IC50 ([2]; 48 h exposure) | IC50 ([6]; 48 h exposure)
1 | CC(=O)OCC1(C2OC(=O)CC2C)CC(=O)c2c(O)ccc(-c3ccc4c(c3O)C(=O)C3=C(O)CC(C)C(OC(C)=O)C3(CO)O4)c2O1 (stereo not drawn) [Compound 1, Phomolactonexanthone A] | weak/no cytotoxic activities | 43.5 ± 2.51 µM | > 50 µM | > 50 µM | no cytotoxic effect | > 50 µM | > 50 µM |  |  |  |  |  |  |  |  |  |  | 
2 | CC(=O)OCC1(C2OC(=O)CC2C)CC(=O)c2c(ccc(-c3ccc4c(c3O)C(=O)C3=C(O)CC(C)C(OC(C)=O)C3(CO)O4)c2O)O1 (stereo not drawn) [Compound 2, Phomolactonexanthone B] | weak/no cytotoxic activities |  | > 50 µM | > 50 µM | no cytotoxic effect |  |  | > 50 µM | 101.6 to 102.4 °C | > 50 µM | > 50 µM |  |  |  |  |  |  | 
3 | CC(=O)O[C@@H]1[C@H](C)CC(O)=C2C(=O)c3c(O)ccc(-c4ccc(O)c5c4O[C@@]4(CO)C(=C(O)C[C@@H](C)[C@H]4OC(C)=O)C5=O)c3O[C@@]21CO [Compound 3, Deacetylphomoxanthone C] | weak/no cytotoxic activities | 43.4 ± 2.09 µM | > 50 µM | > 50 µM | no cytotoxic effect | 44.1 ± 3.29 µM | > 50 µM |  |  |  |  |  |  |  |  |  |  | 
4 | CC(=O)O[C@@H]1[C@H](C)CC(O)=C2C(=O)c3c(ccc(-c4ccc5c(c4O)C(=O)C4=C(O)C[C@@H](C)[C@@H](OC(C)=O)[C@@]4(CO)O5)c3O)O[C@@]21CO [Compound 4, dicerandrol A] | significant cytotoxic activities | 1.76 ± 0.02 µM | 4.19 ± 0.08 µM | 28.3 ± 3.57 µM | displayed cytotoxic effect | 2.64 ± 0.03 µM | 3.03 ± 0.12 µM |  |  |  |  | < 10 µM | less cytotoxic activities than dicerandrol B | less cytotoxic activities than dicerandrol B |  |  |  | 
5 | CC(=O)OC[C@]12Oc3ccc(-c4ccc5c(c4O)C(=O)C4=C(O)C[C@@H](C)[C@@H](OC(C)=O)[C@@]4(CO)O5)c(O)c3C(=O)C1=C(O)C[C@@H](C)[C@H]2OC(C)=O [Compound 5, dicerandrol B] |  |  | 30.4 ± 1.1 µM | 8.14 ± 1.27 µM | less marked cytotoxic effect |  | < 10 µM |  |  |  |  |  |  |  | 8.65 ± 0.66 µM |  |  | 
6 | CC(=O)OC[C@]12Oc3ccc(-c4ccc5c(c4O)C(=O)C4=C(O)C[C@@H](C)[C@@H](OC(C)=O)[C@@]4(COC(C)=O)O5)c(O)c3C(=O)C1=C(O)C[C@@H](C)[C@H]2OC(C)=O [Compound 6, dicerandrol C] |  | 36.5 ± 3.32 µM | > 50 µM | 33 ± 2.74 µM |  | 42.6 ± 2.9 µM | 44.1 ± 2.45 µM |  |  |  |  |  |  |  |  | weak anticancer activities |  | 
7 | CC(=O)O[C@@H]1[C@H](C)CC(O)=C2C(=O)c3c(ccc(-c4ccc(O)c5c4O[C@@]4(CO)C(=C(O)C[C@@H](C)[C@H]4OC(C)=O)C5=O)c3O)O[C@@]21CO [Compound 7, deacetylphomoxanthone B] | excellent selective activities against HCT-116 and Calu-3 cell lines over other cancer cell lines | 4.14 ± 0.02 µM | 29.2 ± 1.19 µM | > 50 µM | no cytotoxic effect | 7.12 ± 0.7 µM | 14.4 ± 1.18 µM |  |  |  |  |  |  |  |  |  |  | 
8 | CC(=O)OC[C@]12Oc3ccc(-c4ccc(O)c5c4O[C@@]4(CO)C(=C(O)C[C@@H](C)[C@H]4OC(C)=O)C5=O)c(O)c3C(=O)C1=C(O)C[C@@H](C)[C@H]2OC(C)=O [Compound 8, penexanthone A] |  | < 10 µM | 42.8 ± 3.58 µM | 16.1 ± 1.57 µM | less marked cytotoxic effect | < 10 µM | < 10 µM |  |  |  |  |  |  |  | 7.9 ± 0.58 µM |  | 6.44 ± 0.86 µM | 6.92 ± 0.38 µM
9 | COc1cccc2c1C(=O)c1c(O)c3c(c(O)c1C2=O)C[C@@](O)(C(=O)CO)C[C@@H]3O[C@H]1C[C@H](N)[C@@H](O)[C@H](C)O1 [epirubicin, reference compound] |  |  | 0.96 ± 0.01 µM | 0.48 ± 0.08 µM |  |  |  | 1.03 ± 0.1 µM |  | 0.48 ± 0.029 µM |  |  |  |  |  |  |  | 
